Reference: PubChem BioAssay AID2060622 (Molecular Pharmacology Branch, DTP, NCI, 2025)

Test system: 242566-281-R-J2-PDC complex spheroid viability
Experiment: Anticancer human tumor 242566-281-R-J2-PDC patient-derived pancreatic carcinoma cell line growth inhibition [CLK]
Conditions: for IC50: curve of first compound; for viability, T/C: stronger effect = lower value
In short: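 Multi-cell-type spheroids combined patient-derived tumor cells with HUVEC endothelial cells and human mesenchymal stem cells. Paired agents were dosed in half-log steps down from about clinical Cmax, or from 10 microM where Cmax was unknown.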
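Also: spheroids exposed to compounds for 7 days before readout.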
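For viability, T/C in this document: 100% = DMSO vehicle control wells.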

SMILES: COc1c(OCCCN2CCOCC2)ccc2c3n(c(=NC(=O)c4cnc(N)nc4)nc12)CCN3 + CNC(=O)c1ccc(Nc2nc(OC3CCCC3)c3c(-c4ccc5nc(C)oc5c4)c[nH]c3n2)c(OC)c1
- IC50 (second compound 0.0316 µM): 50.9 nM
- IC50 (second compound 0.1 µM): 52 nM
- IC50 (second compound 0.316 µM): 29 nM
- IC50 (second compound 1 µM): 8.6 nM
- IC50 (second compound 3.16 µM): < 3.16 nM
- IC50 (second compound 10 µM): < 3.16 nM
- viability, T/C (second compound 0.0316 µM, first compound 0.00316 µM): 104%
- viability, T/C (second compound 0.0316 µM, first compound 0.01 µM): 86.1%
- viability, T/C (second compound 0.0316 µM, first compound 0.0316 µM): 64.7%
- viability, T/C (second compound 0.0316 µM, first compound 0.1 µM): 31.1%
- viability, T/C (second compound 0.0316 µM, first compound 0.316 µM): 19.5%
- viability, T/C (second compound 0.0316 µM, first compound 1 µM): 14.2%
- viability, T/C (second compound 0.1 µM, first compound 0.00316 µM): 72.9%
- viability, T/C (second compound 0.1 µM, first compound 0.01 µM): 98.3%
- viability, T/C (second compound 0.1 µM, first compound 0.0316 µM): 64.4%
- viability, T/C (second compound 0.1 µM, first compound 0.1 µM): 29.2%
- viability, T/C (second compound 0.1 µM, first compound 0.316 µM): 18.8%
- viability, T/C (second compound 0.1 µM, first compound 1 µM): 14.4%
- viability, T/C (second compound 0.316 µM, first compound 0.00316 µM): 81.4%
- viability, T/C (second compound 0.316 µM, first compound 0.01 µM): 70.9%
- viability, T/C (second compound 0.316 µM, first compound 0.0316 µM): 48.8%
- viability, T/C (second compound 0.316 µM, first compound 0.1 µM): 23.9%
- viability, T/C (second compound 0.316 µM, first compound 0.316 µM): 15.1%
- viability, T/C (second compound 0.316 µM, first compound 1 µM): 10.7%
- viability, T/C (second compound 1 µM, first compound 0.00316 µM): 61.5%
- viability, T/C (second compound 1 µM, first compound 0.01 µM): 47%
- viability, T/C (second compound 1 µM, first compound 0.0316 µM): 31.2%
- viability, T/C (second compound 1 µM, first compound 0.1 µM): 14.6%
- viability, T/C (second compound 1 µM, first compound 0.316 µM): 9.5%
- viability, T/C (second compound 1 µM, first compound 1 µM): 10.9%
- viability, T/C (second compound 3.16 µM, first compound 0.00316 µM): 42.9%
- viability, T/C (second compound 3.16 µM, first compound 0.01 µM): 33.5%
- viability, T/C (second compound 3.16 µM, first compound 0.0316 µM): 24.6%
- viability, T/C (second compound 3.16 µM, first compound 0.1 µM): 12.5%
- viability, T/C (second compound 3.16 µM, first compound 0.316 µM): 9.35%
- viability, T/C (second compound 3.16 µM, first compound 1 µM): 10.2%
- viability, T/C (second compound 10 µM, first compound 0.00316 µM): 39.3%
- viability, T/C (second compound 10 µM, first compound 0.01 µM): 32.5%
- viability, T/C (second compound 10 µM, first compound 0.0316 µM): 25%
- viability, T/C (second compound 10 µM, first compound 0.1 µM): 11.4%
- viability, T/C (second compound 10 µM, first compound 0.316 µM): 8.81%
- viability, T/C (second compound 10 µM, first compound 1 µM): 10.2%
